Measurements published in paper PMC12189828, “Substitution of Proline Residues by 4-Fluoro-L-Proline Affects the Mechanism of the Proline-Rich Antimicrobial Peptide Api137” (Antibiotics, 2025).
Where a SMILES comes first, the peptide text is derived from it. [ ]: non-standard residue; d: D form. The star is where a group is joined. Orn(α-tetramethylguanidino) = CN(C)C(=N[C@@H](CCCN)C(=O)*)N(C)C; Pro(trans-4-F) = O=C(O)[C@@H]1C[C@@H](F)CN1; Pro(cis-4-F) = O=C(O)[C@@H]1C[C@H](F)CN1

Tests used:
[1] = system: in vitro expression of sfGFP in the presence of RF1; assay: In vitro transcription-translation (iTT) assay of sfGFP in the presence of RF1; type: biochemical; conditions: peptide 5 µmol/L, RF1, 37 °C, 2 h, fluorescence, normalized to absence of PrAMPs, n = 3
Method: The sfGFP expression analysis relied on the NEB PureExpress Delta RF123 Kit (New England Biolabs, Frankfurt, Germany). The DNA template encoding sfGFP with a UAG stop codon was amplified from the pY71sfGFP vector by PCR using the primers sfGFP fwd ([…]) and sfGFP rev ([…]). The release factor RF1 of the kit was diluted 50-fold (v/v) in 1× Pure System Buffer (PSB, 1 mol/L magnesium acetate, 0.5 mol/L K3PO4 (pH 7.3), 1 mol/L potassium glutamate, 1 mol/L NH4Cl, 0.5 mol/L CaCl2, 1 mol/L spermidine, 0.1 mol/L putrescine, 0.1 mol/L DTT). sfGFP expression was performed in a freshly prepared mixture of kit solution A (2 µL), kit solution B (1.5 µL), 50-fold diluted RF1 (0.5 µL), sfGFP template (0.1325 pmol, 35 ng) or water as control (0.25 µL), PSB (0.25 µL), and a PrAMP (50 or 0 µmol/L) dissolved in water (0.5 µL). The reaction mixture was transferred to a black 384-well plate (flat bottom, PS, 784900, Greiner Bio-One GmbH), covered with a lid, and incubated (37 °C, 2 h) in a microplate reader (Gemini EM, Molecular Devices, San Jose, CA, USA). Fluorescence was recorded every 10 min (λex = 485 nm, λem = 535 nm).

[2] = system: 50S subunit assembly / 70S ribosome in E. coli RN31; assay: Ribosome profile analysis (RPA), sucrose gradient of E. coli RN31 lysate; type: cell-based, Escherichia coli; conditions: 90 min; for RPA [pre-50S formation]: E. coli RN31, 33% TSB, peptide 8 µg/mL, 5–25% sucrose gradient, n = 2 (Api137 n = 7)
Method: E. coli RN31 was grown in 33% TSB (37 °C, 200 rpm) from a starting OD600 of 0.05 to an OD600 of 0.2, measured on a NanoPhotometer® (NP80; Implen; Westlake Village, CA, USA), and divided into subcultures that were inoculated with a peptide ([…]) before being cultured for 90 min (37 °C, 200 rpm). The following steps were performed on ice. Cells were harvested by centrifugation (4000× g, 4 °C, 25 min), washed with TICO buffer (20 mmol/L Hepes-KOH, pH 7.6, 6 mmol/L MgAc2, 30 mmol/L KAc), centrifuged (4000× g, 25 min, 4 °C), and stored at −80 °C. The cell pellet was suspended in TICO buffer (500 µL) and mixed with silica beads (zirconium glass pellets, 100 µm diameter; Carl Roth; Karlsruhe, Germany) to lyse the cells on a FastPrep-24^TM 5G (MP Biomedicals, Solon, OH, USA) using three disruption cycles (30 s, 6.0 m/s) interrupted by 1 min of incubation on ice after each cycle. Cell debris was removed by centrifugation (5000× g, 4 °C, 5 min), the supernatant was transferred to a new reaction tube, centrifuged (20,000× g, 4 °C, 20 min), the absorbance was recorded at 260 nm on a NanoPhotometer® NP80, and the sample was stored at −80 °C.
A 5% (w/v) sucrose solution (6.5 mL) in TICO buffer containing 2-mercaptoethanol (4 mmol/L) was poured into an open-top centrifuge tube (13.2 mL, 14 × 89 mm, Beckman Coulter) and bottomed with a 25% (w/v) sucrose solution (6.5 mL) in TICO buffer containing 2-mercaptoethanol (4 mmol/L) using a cannula. The tube was sealed with parafilm and placed horizontally at 4 °C for 3 h and vertically at 4 °C for 30 min. A portion of the upper layer (550 µL) was replaced by lysate (500 µL, A260 = 30) and centrifuged using a swing-out rotor (SW 41 Ti, 52,500× g, 4 °C, 19 h) without a brake. The contents were transferred from bottom-up to obtain equal volumes in all wells of a black 96-well plate with a flat bottom (96 Well PP black Greiner Bio-One GmbH, Frickenhausen, Germany) using the Äkta Purifier 10 system, and absorbance was recorded at a wavelength of 254 nm. Fluorescence was measured in the plate using the PARADIGM at excitation (λex) and emission (λem) wavelengths of 485 nm and 535 nm for eGFP and 585 nm and 635 nm, respectively, for mCherry and normalized to the 70S ribosome peak (set to 100%).

SMILES	Residual iTT (sfGFP expression relative to no PrAMP) ([1]; listed as 4R-Fpr14) [%]	Residual iTT (sfGFP expression relative to no PrAMP) ([1]; listed as Pro14 4R-Fpr (trans)) [%]	RPA [pre-50S formation] [2]	Residual iTT (sfGFP expression relative to no PrAMP) [1] [%]	Residual iTT (sfGFP expression relative to no PrAMP) ([1]; listed as 4S-Fpr14) [%]	Residual iTT (sfGFP expression relative to no PrAMP) ([1]; listed as Pro14 4S-Fpr (cis)) [%]	ribosomal profile, pre-50S peak ([2]; E. coli RN31, adjusted peptide concentration 16 µg/mL)
CC[C@H](C)[C@H](NC(=O)[C@H](Cc1ccc(O)cc1)NC(=O)[C@@H](NC(=O)[C@@H]1CCCN1C(=O)[C@H](CCCNC(=N)N)NC(=O)[C@H](CC(N)=O)NC(=O)[C@H](CC(N)=O)NC(=O)[C@H](CCCN)N=C(N(C)C)N(C)C)C(C)C)C(=O)N1CCC[C@H]1C(=O)N[C@@H](CCCNC(=N)N)C(=O)N1CCC[C@H]1C(=O)N[C@@H](CCCNC(=N)N)C(=O)N1CCC[C@H]1C(=O)N1C[C@H](F)C[C@H]1C(=O)N[C@@H](Cc1c[nH]cn1)C(=O)N1CCC[C@H]1C(=O)N[C@@H](CCCNC(=N)N)C(=O)N[C@@H](CC(C)C)C(=O)O [Api848] ({Orn(α-tetramethylguanidino)}-NNRPVYIPRPRP[Pro(trans-4-F)]HPRL-OH)	64	64 ± 4.6	no	–	–	–	–
CC[C@H](C)[C@H](NC(=O)[C@H](Cc1ccc(O)cc1)NC(=O)[C@@H](NC(=O)[C@@H]1C[C@H](F)CN1C(=O)[C@H](CCCNC(=N)N)NC(=O)[C@H](CC(N)=O)NC(=O)[C@H](CC(N)=O)NC(=O)[C@H](CCCN)N=C(N(C)C)N(C)C)C(C)C)C(=O)N1CCC[C@H]1C(=O)N[C@@H](CCCNC(=N)N)C(=O)N1CCC[C@H]1C(=O)N[C@@H](CCCNC(=N)N)C(=O)N1CCC[C@H]1C(=O)N1CCC[C@H]1C(=O)N[C@@H](Cc1c[nH]cn1)C(=O)N1CCC[C@H]1C(=O)N[C@@H](CCCNC(=N)N)C(=O)N[C@@H](CC(C)C)C(=O)O [Api839] ({Orn(α-tetramethylguanidino)}-NNR[Pro(cis-4-F)]VYIPRPRPPHPRL-OH)	–	–	yes	23 ± 0.2	–	–	–
CC[C@H](C)[C@H](NC(=O)[C@H](Cc1ccc(O)cc1)NC(=O)[C@@H](NC(=O)[C@@H]1C[C@@H](F)CN1C(=O)[C@H](CCCNC(=N)N)NC(=O)[C@H](CC(N)=O)NC(=O)[C@H](CC(N)=O)NC(=O)[C@H](CCCN)N=C(N(C)C)N(C)C)C(C)C)C(=O)N1CCC[C@H]1C(=O)N[C@@H](CCCNC(=N)N)C(=O)N1CCC[C@H]1C(=O)N[C@@H](CCCNC(=N)N)C(=O)N1CCC[C@H]1C(=O)N1CCC[C@H]1C(=O)N[C@@H](Cc1c[nH]cn1)C(=O)N1CCC[C@H]1C(=O)N[C@@H](CCCNC(=N)N)C(=O)N[C@@H](CC(C)C)C(=O)O [Api840] ({Orn(α-tetramethylguanidino)}-NNR[Pro(trans-4-F)]VYIPRPRPPHPRL-OH)	–	–	yes	35 ± 0.1	–	–	–
CC[C@H](C)[C@H](NC(=O)[C@H](Cc1ccc(O)cc1)NC(=O)[C@@H](NC(=O)[C@@H]1CCCN1C(=O)[C@H](CCCNC(=N)N)NC(=O)[C@H](CC(N)=O)NC(=O)[C@H](CC(N)=O)NC(=O)[C@H](CCCN)N=C(N(C)C)N(C)C)C(C)C)C(=O)N1CCC[C@H]1C(=O)N[C@@H](CCCNC(=N)N)C(=O)N1CCC[C@H]1C(=O)N[C@@H](CCCNC(=N)N)C(=O)N1CCC[C@H]1C(=O)N1C[C@@H](F)C[C@H]1C(=O)N[C@@H](Cc1c[nH]cn1)C(=O)N1CCC[C@H]1C(=O)N[C@@H](CCCNC(=N)N)C(=O)N[C@@H](CC(C)C)C(=O)O [Api847] ({Orn(α-tetramethylguanidino)}-NNRPVYIPRPRP[Pro(cis-4-F)]HPRL-OH)	–	–	reduced	–	21	21 ± 0.2	a pre-50S peak was observed
